Where no end group is shown, it is not given here. [ ]: non-standard residue; d: D form. NMeK = CN[C@@H](CCCCN)C(=O)O

One may read the Kd as the constant that tells how readily two partners part at equilibrium.

Test [1] concerns the target T1, Gαi1·GDP (Homo sapiens, UniProt P63096). As to conditions: binding to Gαi1·GDP; literature value; cited from earlier work.
A further test deals with T2, Gαi1 (Homo sapiens, UniProt P63096).
T2 construct: made in house; host or cells: cell-free TnT reticulocyte lysate system (Promega), T7 promoter
T2 sequence (P63096 whole entry): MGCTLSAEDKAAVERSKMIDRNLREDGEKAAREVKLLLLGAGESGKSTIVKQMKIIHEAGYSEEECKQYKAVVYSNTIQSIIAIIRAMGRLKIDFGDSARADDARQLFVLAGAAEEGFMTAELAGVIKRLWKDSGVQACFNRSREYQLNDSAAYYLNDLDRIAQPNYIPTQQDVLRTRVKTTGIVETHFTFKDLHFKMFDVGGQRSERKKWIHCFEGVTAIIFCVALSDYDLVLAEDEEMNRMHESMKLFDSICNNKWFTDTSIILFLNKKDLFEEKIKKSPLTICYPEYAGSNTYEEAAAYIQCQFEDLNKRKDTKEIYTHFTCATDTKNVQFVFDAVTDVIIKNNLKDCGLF
Put plainly: R6A-1 competition/equilibrium binding. As to conditions: relative to unmodified peptide. The protocol:
FIG. 2. Relative Peptide Affinities. (A) Radiolabeled Gαi1 was incubated with immobilized, biotinylated R6A and varying concentrations of either R6A (▾), unmodified peptide (▴), or N-Me-K (♦) for 3 hr. at 4° C. The radiolabel bound was normalized to that which bound in the absence of competitor. The plotted values represent the mean of three experimental values and the error bars correspond to the standard deviation. (B) Experimentally determined binding data is shown above. The error is calculated based on the standard error of the mean (SEM) for the log IC50 using GraphPad 5.0.
R6A-1 Competition/Equilibrium Binding: R6A (MSQTKRLDDQLYWWEYL) and Bio-R6A (Bio-MSQTKRLDDQLYWWEYL) were synthesized by previously described methods. This peptide was immobilized to NeutrAvidin beads (Promega) using the manufacturer's instructions. Gαi1 was expressed using the TnT reticulocyte lysate system (T7 promoter, Promega). (250 ng) plasmid DNA and (25 μCi) L-35S-Met (MP Biomedicals) were used in an (25 μL) expression. […] Specific Activity was measured by TCA precipitation.
400 pmol immobilized R6A, and (100,000 cpm) Gαi1 were suspended in (1 mL) HBS-EP buffer. Varying quantities of free peptide (R6A, Unmodified peptide, or N-Me-K) were added. […] After the final wash, the immobilized sample was transferred to scintillation vials and analyzed by scintillation counting. […]

Test [2] deals with T1, Gαi1·GDP. Put plainly: TnT pulldown binding of N-methyl peptide library. Further details: made in house; host or cells: cell-free TnT coupled transcription/translation system (Promega); cDNA clone from UMR cDNA Resource Center. As to conditions: compared with unmodified peptide. The protocol: Binding affinity of N-methyl peptide library: TnT pulldown experiments were carried out as described in [10] with some modifications. Human cDNA clones encoding G proteins with the pcDNA3.1+ vector (Invitrogen) were obtained from the UMR cDNA Resource Center (www.cdna.org). The DNA clones for Gαi1, and HRas were translated into 35S-Met labeled proteins using a TnT coupled transcription/translation system (Promega). Translation reactions were desalted using G-25 spin columns (GE Healthcare) and the translation yield was calculated by TCA precipitation. Equal amounts of each labeled subunit were added to (5 μL) neutravidin-agarose containing (2 nmol) pre-bound biotin labeled peptide in (1 mL) HBS-EP buffer. Control neutravidin-agarose beads were loaded with (d)-biotin (Anaspec). Binding reactions proceeded for 2 hrs at 4° C. followed by filtration and washing with HBS-EP. The matrix was analyzed by scintillation counting and the percent bound was determined by the matrix counts divided by the total counts as determined by TCA precipitation. Values were normalized to the percent bound of unmodified peptide.

T1 sequence (P63096 whole entry): as above

Regarding MSQTKRLDDQLYWWEYL [Compound R6A], the dissociation constant Kd on Gαi1·GDP [1] was 60 nM. On to NNNNND[NMeK]LYWWEFL [N-Me-K], for which the ΔΔG at Gαi1 (equilibrium competition with R6A) was -0.50 kcal/mol. The “enhanced binding (fold) by equilibrium competition using the R6A peptide” value at Gαi1 (immobilized R6A, radiolabeled Gαi1, 3 hr at 4° C.) was determined as 2.5 fold. Further, the “peptide binding affinity to Gαi1·GDP (qualitative)” value at Gαi1·GDP [2] is “increased binding affinity”.

With DKLYWWEFL, the Kd at Gαi1·GDP [1] is 200 nM.

The values above are taken from patent US20090325314A1, “N-Methyl Scanning Mutagenesis” (UNIVERSITY OF SOUTHERN CALIFORNIA, priority 2008, published 2009).
